Like-named read-outs stand apart in the source and are kept apart here.
Tests used:
[1] = test system: VP-MCC cell lines (WAGA, MKL-1, MKL-2); experiment: qHTS cell viability, VP-MCC cell lines as a group (mean AUC, VP.MCC.avg); type: cell-based, human
WAGA cells (VP-MCC) = experiment: qHTS cell viability (CellTiter-Glo, 72 h; primary and follow-up small molecule screen); type: cell-based, human
MKL-1 cells (VP-MCC) = experiment: as above; type: cell-based, human
[2] = test system: MCC cell lines (WAGA, MKL-1, MKL-2, MCC13, MCC26, UISO); experiment: qHTS cell viability, all six MCC cell lines as a group (mean AUC, MCC.avg); type: cell-based, human
MKL-2 cells (VP-MCC) = experiment: qHTS cell viability (CellTiter-Glo, 72 h; primary and follow-up small molecule screen); type: cell-based, human
CRL-7250 cells = experiment: qHTS cell viability (CellTiter-Glo, 72 h; primary screen), control cell line; type: cell-based
NIH-3T3 cells = experiment: as above; type: cell-based, mouse
[3] = test system: VN-MCC cell lines (MCC13, MCC26, UISO); experiment: qHTS cell viability, VN-MCC cell lines as a group (mean AUC, VN.MCC.avg); type: cell-based, human
UISO cells (VN-MCC) = experiment: qHTS cell viability (CellTiter-Glo, 72 h; primary and follow-up small molecule screen); type: cell-based, human
[4] = test system: control cell lines (HACAT, HEK293T, CRL-7250, NIH-3T3); experiment: qHTS cell viability, control cell lines as a group (mean AUC, Control.avg); type: cell-based
MCC13 cells (VN-MCC) = experiment: qHTS cell viability (CellTiter-Glo, 72 h; primary and follow-up small molecule screen); type: cell-based, human
[5] = test system: six MCC cell lines and four control cell lines; experiment: qHTS cell viability, all 10 cell lines screened; type: cell-based
HACAT cells = experiment: qHTS cell viability (CellTiter-Glo, 72 h; primary screen), control cell line; type: cell-based, human
MCC26 cells (VN-MCC) = experiment: qHTS cell viability (CellTiter-Glo, 72 h; primary and follow-up small molecule screen); type: cell-based, human
HEK293T cells = experiment: qHTS cell viability (CellTiter-Glo, 72 h; primary screen), control cell line; type: cell-based, human
[6] = MIPE library, 11-point DRC, sheet S2E
[7] = MIPE library, 11-point DRC, control cell line, sheet S2E

Structure (SMILES): CC1(C)CCC(c2ccc(Cl)cc2)=C(CN2CCN(c3ccc(C(=O)N[S+](=O)([O-])c4ccc(N[C@H](CCN5CCOCC5)CSc5ccccc5)c([S+](=O)([O-])C(F)(F)F)c4)cc3)CC2)C1 [ABT-263 (Navitoclax)]
- Control-VP-MCC ([1]; MIPE library, Control AUC minus VP-MCC AUC (therapeutic window), sheet S2E): 189.019
- VP-MCC_Avg_AUC ([1]; MIPE library, mean AUC of VP-MCC cell lines, sheet S2E): 272.305
- WAGA_AUC (WAGA cells (VP-MCC); [6]): 250.192
- MKL1_AUC (MKL-1 cells (VP-MCC); [6]): 289.046
- MCC_Avg_AUC ([2]; MIPE library, mean AUC of six MCC cell lines, sheet S2E): 382.812
- MKL2_AUC (MKL-2 cells (VP-MCC); [6]): 277.677
- CRL7250_AUC (CRL-7250 cells; [7]): 467.721
- NIH3T3_AUC (NIH-3T3 cells; [7]): 462.454
- Control-VN-MCC ([3]; MIPE library, Control AUC minus VN-MCC AUC (therapeutic window), sheet S2E): -31.9962
- VN-MCC_Avg_AUC ([3]; MIPE library, mean AUC of VN-MCC cell lines, sheet S2E): 493.32
- UISO_AUC (UISO cells (VN-MCC); [6]): 533.391
- Control_Avg_AUC ([4]; MIPE library, mean AUC of control cell lines, sheet S2E): 461.324
- MCC13_AUC (MCC13 cells (VN-MCC); [6]): 470.158
- Control-MCC ([5]; MIPE library, Control AUC minus MCC AUC (therapeutic window), sheet S2E): 78.5112
- HACAT_AUC (HACAT cells; [7]): 444.442
- MCC26_AUC (MCC26 cells (VN-MCC); [6]): 476.41
- HEK293T_AUC (HEK293T cells; [7]): 470.677

Structure (SMILES): CC(C)(C)CC(C)(C)c1ccc(OCCOCC[N+](C)(C)Cc2ccccc2)cc1 [Benzethonium chloride]
- Control-VP-MCC [1]: 73.3469
- VP-MCC_Avg_AUC [1]: 349.456
- Area under the dose-response curve (AUC) WAGA Replicate 1 (WAGA cells (VP-MCC)): 389.4
- Area under the dose-response curve (AUC) WAGA Replicate 2 (WAGA cells (VP-MCC)): 374.6
- Area under the dose-response curve (AUC) WAGA Replicate 3 (WAGA cells (VP-MCC)): 382.0
- WAGA_AUC (WAGA cells (VP-MCC)): 367.918
- Area under the dose-response curve (AUC) MKL-1 Replicate 1 (MKL-1 cells (VP-MCC)): 338.0
- Area under the dose-response curve (AUC) MKL-1 Replicate 2 (MKL-1 cells (VP-MCC)): 346.5
- Area under the dose-response curve (AUC) MKL-1 Replicate 3 (MKL-1 cells (VP-MCC)): 373.3
- MKL1_AUC (MKL-1 cells (VP-MCC)): 344.624
- MCC_Avg_AUC [2]: 398.298
- Area under the dose-response curve (AUC) MKL-2 Replicate 1 (MKL-2 cells (VP-MCC)): 357.2
- Area under the dose-response curve (AUC) MKL-2 Replicate 2 (MKL-2 cells (VP-MCC)): 340.8
- Area under the dose-response curve (AUC) MKL-2 Replicate 3 (MKL-2 cells (VP-MCC)): 365.0
- MKL2_AUC (MKL-2 cells (VP-MCC)): 335.827
- CRL7250_AUC (CRL-7250 cells): 423.584
- NIH3T3_AUC (NIH-3T3 cells): 461.959
- Control-VN-MCC [3]: -24.3368
- VN-MCC_Avg_AUC [3]: 447.14
- Area under the dose-response curve (AUC) UISO Replicate 1 (UISO cells (VN-MCC)): 363.2
- Area under the dose-response curve (AUC) UISO Replicate 2 (UISO cells (VN-MCC)): 392.4
- Area under the dose-response curve (AUC) UISO Replicate 3 (UISO cells (VN-MCC)): 362.8
- UISO_AUC (UISO cells (VN-MCC)): 402.239
- Control_Avg_AUC [4]: 422.803
- Area under the dose-response curve (AUC) MCC13 Replicate 1 (MCC13 cells (VN-MCC)): 446.4
- Area under the dose-response curve (AUC) MCC13 Replicate 2 (MCC13 cells (VN-MCC)): 458.8
- Area under the dose-response curve (AUC) MCC13 Replicate 3 (MCC13 cells (VN-MCC)): 480.2
- MCC13_AUC (MCC13 cells (VN-MCC)): 470.477
- Control-MCC [5]: 24.505
- HACAT_AUC (HACAT cells): 436.332
- Area under the dose-response curve (AUC) MCC26 Replicate 1 (MCC26 cells (VN-MCC)): 408.1
- Area under the dose-response curve (AUC) MCC26 Replicate 2 (MCC26 cells (VN-MCC)): 395.1
- Area under the dose-response curve (AUC) MCC26 Replicate 3 (MCC26 cells (VN-MCC)): 422.7
- MCC26_AUC (MCC26 cells (VN-MCC)): 468.704
- HEK293T_AUC (HEK293T cells): 369.337

Structure (SMILES): Cc1cc(OCCOCC[N+](C)(C)Cc2ccccc2)ccc1C(C)(C)CC(C)(C)C.[Cl-] [Methylbenzethonium chloride]
- VP-MCC_Avg_AUC ([1]; NPC library, mean AUC of VP-MCC cell lines): 240.895
- Control-VP-MCC ([1]; NPC library, therapeutic window: Control avg AUC minus VP-MCC avg AUC): 174.06
- WAGA_AUC (WAGA cells (VP-MCC); NPC library, qHTS dose-response AUC, WAGA): 200.731
- MKL1_AUC (MKL-1 cells (VP-MCC); NPC library, qHTS dose-response AUC, MKL1): 312.601
- MCC_Avg_AUC ([2]; NPC library, mean AUC of six MCC cell lines): 338.857
- MKL2_AUC (MKL-2 cells (VP-MCC); NPC library, qHTS dose-response AUC, MKL2): 209.354
- CRL7250_AUC (CRL-7250 cells; NPC library, qHTS dose-response AUC, CRL7250 control): 444.568
- NIH3T3_AUC (NIH-3T3 cells; NPC library, qHTS dose-response AUC, NIH3T3 control): 469.697
- VN-MCC_Avg_AUC ([3]; NPC library, mean AUC of VN-MCC cell lines): 436.818
- Control-VN-MCC ([3]; NPC library, therapeutic window: Control avg AUC minus VN-MCC avg AUC): -21.8625
- UISO_AUC (UISO cells (VN-MCC); NPC library, qHTS dose-response AUC, UISO): 375.218
- Control_Avg_AUC ([4]; NPC library, mean AUC of control cell lines): 414.956
- MCC13_AUC (MCC13 cells (VN-MCC); NPC library, qHTS dose-response AUC, MCC13): 479.749
- Control-MCC ([5]; NPC library, therapeutic window: Control avg AUC minus MCC avg AUC): 76.0988
- HACAT_AUC (HACAT cells; NPC library, qHTS dose-response AUC, HACAT control): 428.465
- MCC26_AUC (MCC26 cells (VN-MCC); NPC library, qHTS dose-response AUC, MCC26): 455.487
- HEK293T_AUC (HEK293T cells; NPC library, qHTS dose-response AUC, HEK293T control): 317.092
